From PubChem BioAssay AID248 (DTP/NCI, 2004)
Where “and” joins values, the source holds several entries; their conditions need not be identical. Identical values can stand only once. Toxic doses and inconclusive results are not listed. Cut-off read from the data, not from the text of the source: active = T/C of 150% or more; inactive = T/C below 125%.

System: L1210 leukemia ip in BDF1 mice, survival T/C
Test: NCI In Vivo Anticancer Drug Screen. Data for tumor model L1210 Leukemia (intraperitoneal) in B6D2F1 (BDF1) mice
Details: endpoint: mean survival time, higher = longer survival
In short: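 Tumor cells were implanted, animals were treated, and survival was followed. The result divides the treated measurement by the vehicle-control measurement.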

[1] = dose: 100.0 mg/kg/injection, schedule: Q01DX001 (ip), vehicle: Klucel (hydroxypropylcellulose) (HPC)
[2] = dose: 200.0 mg/kg/injection, schedule: Q01DX001 (ip), vehicle: Klucel (hydroxypropylcellulose) (HPC)
[3] = dose: 100.0 mg/kg/injection, schedule: Q01DX001 (ip), vehicle: other
[4] = dose: 200.0 mg/kg/injection, schedule: Q01DX001 (ip), vehicle: other
[5] = dose: 100.0 mg/kg/injection, schedule: Q01DX009 (ip), vehicle: Klucel (hydroxypropylcellulose) (HPC)
[6] = dose: 200.0 mg/kg/injection, schedule: Q01DX009 (ip), vehicle: Klucel (hydroxypropylcellulose) (HPC)
[7] = dose: 400.0 mg/kg/injection, schedule: Q01DX009 (ip), vehicle: Klucel (hydroxypropylcellulose) (HPC)
[8] = dose: 100.0 mg/kg/injection, schedule: Q04DX003 (ip), vehicle: saline with Tween-80
[9] = dose: 200.0 mg/kg/injection, schedule: Q04DX003 (ip), vehicle: saline with Tween-80
[10] = dose: 100.0 mg/kg/injection, schedule: Q04DX002 (ip), vehicle: Klucel (hydroxypropylcellulose) (HPC)
[11] = dose: 200.0 mg/kg/injection, schedule: Q04DX002 (ip), vehicle: Klucel (hydroxypropylcellulose) (HPC)
[12] = dose: 400.0 mg/kg/injection, schedule: Q04DX002 (ip), vehicle: Klucel (hydroxypropylcellulose) (HPC)
[13] = dose: 25.0 mg/kg/injection, schedule: Q01DX009 (ip), vehicle: saline
[14] = dose: 50.0 mg/kg/injection, schedule: Q01DX009 (ip), vehicle: saline
[15] = dose: 100.0 mg/kg/injection, schedule: Q01DX009 (ip), vehicle: saline
[16] = dose: 100.0 mg/kg/injection, schedule: Q04DX003 (ip), vehicle: saline
[17] = dose: 200.0 mg/kg/injection, schedule: Q04DX003 (ip), vehicle: saline
[18] = dose: 100.0 mg/kg/injection, schedule: Q04DX003 (ip), vehicle: Klucel (hydroxypropylcellulose) (HPC)
[19] = dose: 200.0 mg/kg/injection, schedule: Q04DX003 (ip), vehicle: Klucel (hydroxypropylcellulose) (HPC)
[20] = dose: 400.0 mg/kg/injection, schedule: Q04DX003 (ip), vehicle: saline
[21] = dose: 100.0 mg/kg/injection, schedule: Q01DX001 (ip), vehicle: saline
[22] = dose: 200.0 mg/kg/injection, schedule: Q01DX001 (ip), vehicle: saline

Measured: T/C

CCOc1ccc(C(c2ccc(OCC)cc2)C(Cl)(Cl)Cl)cc1
inactive: [1] 106 % of control | [2] 100 % of control | dose: 400.0 mg/kg/injection, schedule: Q01DX001 (ip), vehicle: Klucel (hydroxypropylcellulose) (HPC) 100 % of control

CCCCN(CCCC)/N=N/c1nc[nH]c1C(=O)OC
inactive: [3] 97 % of control | [4] 97 % of control

Nc1nc(-c2ccccc2)cc(=O)[nH]1
inactive: [5] 88 % of control | [6] 97 % of control | [7] 93 % of control

Cn1c(O)c(N=Nc2ccccc2[N+](=O)[O-])c2ccccc21
inactive: [3] 95 % of control | [4] 90 % of control | dose: 400.0 mg/kg/injection, schedule: Q01DX001 (ip), vehicle: other 95 % of control

Brc1n[nH]nc1Br
inactive: [8] 98 % of control | [9] 104 % of control | dose: 400.0 mg/kg/injection, schedule: Q04DX003 (ip), vehicle: saline with Tween-80 101 % of control

CC12CCC(O)CC1=CCC1C2CCC2(C)C1CC1=CC(C#N)C(=O)NC12O (configuration not stated)
inactive: dose: 100.0 mg/kg/injection, schedule: Q04DX003 (sc), vehicle: Klucel (hydroxypropylcellulose) (HPC) 100 % of control | dose: 200.0 mg/kg/injection, schedule: Q04DX003 (sc), vehicle: Klucel (hydroxypropylcellulose) (HPC) 103 % of control | dose: 400.0 mg/kg/injection, schedule: Q04DX003 (sc), vehicle: Klucel (hydroxypropylcellulose) (HPC) 99 % of control

COc1ccc(C(CC(=O)c2ccc(C)cc2)Sc2ccccc2N)cc1 (configuration not stated)
inactive: dose: 100.0 mg/kg/injection, schedule: Q01DX005 (ip), vehicle: Klucel (hydroxypropylcellulose) (HPC) 108 % of control | [5] 94 % of control | [10] 98 % of control | dose: 200.0 mg/kg/injection, schedule: Q01DX005 (ip), vehicle: Klucel (hydroxypropylcellulose) (HPC) 89 % of control | [6] 97 % of control | [11] 103 % of control | dose: 400.0 mg/kg/injection, schedule: Q01DX005 (ip), vehicle: Klucel (hydroxypropylcellulose) (HPC) 86 % of control | [7] 94 % of control | [12] 103 % of control

COc1ccc(Cc2nccc3c(OC)c(OC)ccc23)cc1OC
inactive: [13] 98 % of control | dose: 25.0 mg/kg/injection, schedule: Q04DX003 (ip), vehicle: saline 107 % of control | [14] 102 % of control | dose: 50.0 mg/kg/injection, schedule: Q04DX003 (ip), vehicle: saline 93 % of control | [15] 93 % of control | [16] 96 % of control and 103 % of control | [17] 86 % of control

CN(C)CCCc1c2ccccc2nc2ccc(Cl)cc12
inactive: dose: 12.0 mg/kg/injection, schedule: Q01DX009 (ip), vehicle: saline 98 % of control | [13] 101 % of control

C=CCOC(=O)CCCCC(=O)OCC=C
inactive: dose: 100.0 mg/kg/injection, schedule: Q01DX009 (ip), vehicle: saline with Tween-80 94 % of control

C[n+]1cc2c(CO)cc(CO)cc2c2ccccc21
inactive: dose: 75.0 mg/kg/injection, schedule: Q01DX001 (ip), vehicle: saline 97 % of control | dose: 150.0 mg/kg/injection, schedule: Q01DX001 (ip), vehicle: saline 95 % of control | dose: 300.0 mg/kg/injection, schedule: Q01DX001 (ip), vehicle: saline 97 % of control

CC(=O)NCCCOc1ccc([N+](=O)[O-])cc1
inactive: [18] 101 % of control | [19] 91 % of control | dose: 400.0 mg/kg/injection, schedule: Q04DX003 (ip), vehicle: Klucel (hydroxypropylcellulose) (HPC) 92 % of control

COc1ccc(CCN2C(=O)c3cccc4c(Sc5ccccc5[N+](=O)[O-])ccc(c34)C2=O)cc1OC
inactive: dose: 100.0 mg/kg/injection, schedule: Q04DX002 (ip), vehicle: saline with Tween-80 90 % of control | dose: 200.0 mg/kg/injection, schedule: Q04DX002 (ip), vehicle: saline with Tween-80 111 % of control | dose: 400.0 mg/kg/injection, schedule: Q04DX002 (ip), vehicle: saline with Tween-80 93 % of control

CCN(CC)Cc1ccccc1COC(=O)c1cccc(Br)c1
inactive: dose: 50.0 mg/kg/injection, schedule: Q04DX002 (ip), vehicle: Klucel (hydroxypropylcellulose) (HPC) 111 % of control | [10] 118 % of control | [11] 103 % of control

CC(NCCO)C(O)c1ccccc1 (configuration not stated)
inactive: [15] 94 % of control | [16] 95 % of control | dose: 200.0 mg/kg/injection, schedule: Q01DX009 (ip), vehicle: saline 94 % of control | [17] 104 % of control | dose: 400.0 mg/kg/injection, schedule: Q01DX009 (ip), vehicle: saline 103 % of control | [20] 97 % of control

CNC(=O)Nc1ccc(C(=O)O)cc1
inactive: [10] 102 % of control | [11] 95 % of control | [12] 95 % of control

Cc1ccc(NC(=O)/C=C/c2ccccc2)cc1Cl
inactive: [5] 95 % of control | [6] 98 % of control | [7] 104 % of control

CCC1OCC(C(Cl)CCl)O1 (configuration not stated)
inactive: dose: 100.0 mg/kg/injection, schedule: Q01DX009 (ip), vehicle: saline sonified 99 % of control

CC(=O)SC1CC(=O)OC1=O (configuration not stated)
inactive: [14] 96 % of control | [21] 96 % of control | [15] 102 % of control | [22] 104 % of control | dose: 400.0 mg/kg/injection, schedule: Q01DX001 (ip), vehicle: saline 98 % of control

O=C(NCCCl)Nc1ccccc1
inactive: [1] 93 % of control | [18] 122 % of control | [2] 101 % of control | [19] 104 % of control

C=Cc1cnc(NC(C)=O)c(C#N)n1
inactive: [1] 103 % of control | [2] 100 % of control

O=C(O)c1cc2ccc3ccccc3c2s1
inactive: [21] 87 % of control | [22] 88 % of control

N/C(=N\[N+](=O)[O-])Nc1ccccn1
inactive: [10] 95 % of control | [11] 98 % of control | [12] 109 % of control

CC1(CCC(=O)O)CCCCC1=O (configuration not stated)
inactive: [16] 96 % of control | [17] 96 % of control | [20] 112 % of control

O=C(O)/C=C\C(=O)Nc1ccc2c(c1)Cc1cc(Cl)ccc1-2
inactive: [8] 92 % of control | [9] 87 % of control

CC(=O)Nc1ccc(NC(=O)Nc2ccc(Cl)cc2)cc1
inactive: dose: 25.0 mg/kg/injection, schedule: Q01DX001 (ip), vehicle: carboxymethylcellulose (CMC) 92 % of control and 90 % of control | dose: 50.0 mg/kg/injection, schedule: Q01DX001 (ip), vehicle: carboxymethylcellulose (CMC) 93 % of control and 97 % of control | dose: 100.0 mg/kg/injection, schedule: Q01DX001 (ip), vehicle: carboxymethylcellulose (CMC) 95 % of control and 101 % of control and 87 % of control | dose: 100.0 mg/kg/injection, schedule: Q01DX009 (ip), vehicle: carboxymethylcellulose (CMC) 93 % of control and 94 % of control | dose: 100.0 mg/kg/injection, schedule: Q04DX003 (ip), vehicle: carboxymethylcellulose (CMC) 87 % of control and 88 % of control | dose: 200.0 mg/kg/injection, schedule: Q01DX001 (ip), vehicle: carboxymethylcellulose (CMC) 94 % of control | dose: 200.0 mg/kg/injection, schedule: Q01DX009 (ip), vehicle: carboxymethylcellulose (CMC) 92 % of control and 94 % of control | dose: 200.0 mg/kg/injection, schedule: Q04DX003 (ip), vehicle: carboxymethylcellulose (CMC) 92 % of control and 90 % of control | dose: 400.0 mg/kg/injection, schedule: Q01DX001 (ip), vehicle: carboxymethylcellulose (CMC) 95 % of control | dose: 400.0 mg/kg/injection, schedule: Q01DX009 (ip), vehicle: carboxymethylcellulose (CMC) 104 % of control and 122 % of control | dose: 400.0 mg/kg/injection, schedule: Q04DX003 (ip), vehicle: carboxymethylcellulose (CMC) 98 % of control and 87 % of control

CCC(Br)Cc1ccccc1 (configuration not stated)
inactive: dose: 2.0 mg/kg/injection, schedule: Q01DX015 (ip), vehicle: saline 91 % of control | dose: 4.0 mg/kg/injection, schedule: Q01DX015 (ip), vehicle: saline 91 % of control | dose: 8.0 mg/kg/injection, schedule: Q01DX015 (ip), vehicle: saline 91 % of control | dose: 16.0 mg/kg/injection, schedule: Q01DX015 (ip), vehicle: saline 95 % of control
